Assay results taken from patent publication US20240262844A1, “PYRIDINIUM SALTS AND METHODS OF USE” (UNIVERSITY OF WYOMING, priority 2023, published 2024).
Where “and” joins values, the source holds several entries; their conditions need not be identical. Identical values can stand only once. Entries after “also recorded” stand apart in the source; their conditions may differ. Counter-ions that a name gives are not always drawn.

What was measured:
[1] = test system: HEK293T lysates; test: Chemoproteomic profiling of HEK293T lysates (protein-level enrichment); type: biochemical, Human; conditions: for proteome labeling profile, streptavidin-HRP Western blot of elution profiles: 0-100 μM probe, with and without irradiation, before digestion; for number of proteins identified (from ≥2 unique peptides) with ≥2-fold enrichment versus DMSO: about 100 μM probe, 60 min incubation, 20 min irradiation (302 nm 1a, 320 nm 1b, 440 nm 2b)
Protocol: In lysate tryptophan probe treatment for protein-level characterization: HEK293T cell pellets were suspended in native lysis buffer (50 mM HEPES pH 7.5, 150 mM sodium chloride (NaCl), 1.5 mM MgCl2, 1 mM DTT, 0.8% NP-40, 5% glycerol, and 1x protease inhibitors (Thermo)) at 2x the pellet volume. The samples were sonicated on ice for 30 seconds at 20% amplitude with a 2 second pulse ON and 3 second pulse OFF. Cell debris was removed by centrifugation at 20,000×g for 20 minutes at 4° C. Protein concentration was determined by bicinchoninic acid (BCA) (Pierce) and diluted down to 5 mg/mL with ChemProt buffer (50 mM HEPES pH 7.5, 150 mM NaCl, 1.5 mM MgCl2, 1 mM DTT, 0.4% NP-40, and 1x protease inhibitors (Thermo). 5 mg cell lysates were treated with 100x stocks of the tryptophan probes (pyridinium salts 1a, 1b, and 2b) to generate final concentrations (0, 1, 10, and 100 μM) in 1% DMSO. Lysates were incubated for 1 hour at 4° C. followed by photo-activation at respective wavelengths for 20 minutes at 4° C. Excess probe was removed using Sephadex G-25 PD-10 desalting columns (GE Healthcare) pre-equilibrated with 50 mM HEPES pH 7.5, 150 mM NaCl, 1.5 mM MgCl2, and 0.4% NP-40. The samples were then treated with 100 μL Neutravidin resin as a 50% slurry (Peirce). The samples were incubated overnight on a rotating apparatus at R.T. The following day, the beads were transferred to a MobiCol column (Boca Scientific), washed 3× with phosphate buffered saline (PBS) containing 0.2% SDS, washed 3x with PBS, and the enriched proteins were eluted with 2×NuPAGE lithium dodecyl sulfate (LDS) containing 10 mM DTT (Pierce) and heated for 30 minutes at 55° C. The eluent was collected and subsequently treated with 20 mM iodoacetamide (Pierce) for 30 minutes at R.T. protected from light. Samples were passed through detergent removal columns (Pierce) that were pre-equilibrated with 50 mM HEPES pH 8.0. The samples were treated with 2.5 μg Trypsin/LysC (Promega) at 37° C. for 16 hours. The following day, the sample was collected and prepped for isobaric labeling with TMT reagents (Thermo) as specified by the manufacturer.
Quantitative proteomics by two-dimensional nano liquid chromatography-tandem mass spectrometry (nLC-MS/MS): For protein-level characterization, the TMT-labeled sample were reconstituted in 0.1% formic acid (FA)/2% acetonitrile for offline high-pH reversed phase separation (RP10) using a Dionex UltiMate 3000 high-performance liquid chromatography (HPLC) system with fraction collection using Chromeleon v.6.8 (Thermo) software. Separation was achieved on a Waters Xbridge C18 3.5 μm 2.1×150 mm HPLC column (Waters) using a flow rate of 250 μL min-1 and the following ternary gradient and conditions: mobile phase A=water (HPLC grade), mobile phase B=acetonitrile (HPLC grade), and mobile phase C=200 mM ammonium acetate, pH 10. Mobile phase C is held at 10% throughout gradient. Starting conditions are 89% mobile phase A and 1% mobile phase B, ramping mobile phase B to 80% over 65 min. Fractions were collected in 96-well plates at 100 see per well. Fractions were reduced down to 12 fractions, dried, and reconstituted in 0.1% FA/2% acetonitrile for nLC-MS/MS. All data were acquired using a Orbitrap Fusion Lumos coupled to an Easy-nLC 1200 nanoflow liquid chromatograph operating at 300 nL min^−1. Peptides were cleaned up using a 1 cm online custom trap then eluted on a custom 20 cm laser pulled 75 μm column with C18 resin. Peptides were quantified using the synchronous precursor selection (SPS-MS3) or HCD method for TMT quantitation with 120k MS1 resolving power, 50 ms max injection time and 100% AGC. MS2 spectra were selected using the top ten most abundant features with a charge state between 2-6 using CID (collision induced dissociation) in the ion trap. The AGC was set to 100% with an isolation width of 0.7. MS3 was performed on the top 10 most abundant MS2 features between 400-1600 amu with a collision energy of 55%, AGC of 250%, and 50k resolution. […]

[2] = Water solubility of salt forms; type: physicochemical; conditions: trifluoroacetate salt compared to the tetrafluoroborate salt
Protocol: Pyridinium salt 2c was synthesized by adapting general procedure A as follows: To a flame dried round-bottom flask equipped with a stir bar was added 4-(6-methoxynaphthalen-2-yl)-2,6-dimethylpyrylium tetrafluoroborate (S2) (80 mg, 0.23 mmol), 6-((4R,5S)-5-methyl-2-oxoimidazolidin-4-yl)hexyl 1-methylhydrazine-1-carboxylate S6 (110 mg, 0.404 mmol), and ethanol (1.2 mL) and stirred for 24 hours at 60° C. The reaction mixture was then concentrated using a rotary evaporator. The resulting residue was dissolved in dichloromethane and washed with 10% fluoroboric acid (HBF4, aqueous) (2×10 mL), saturated NaBF4 (aqueous) (2×10 mL), dried over […], filtered, and concentrated using a rotary evaporator. The resulting green solid was then sonicated in hexanes followed by decanting of the supernatant. This procedure was repeated 5 times and the resulting solid was dried under vacuum to obtain the tetrafluoroborate salt of 2c as a green solid (119 mg, 76%). The tetrafluoroborate salt of 2c was further purified by HPLC using general method B to yield the trifluoroacetate (X=TFA, CF3CO2^−) salt of 2c.

[3] = target: T1, lysozyme (14.3 kDa) (Gallus gallus, UniProt P00698); test: Photochemical labeling of lysozyme (LC/MS); type: biochemical, chicken; conditions: 500 μM pyridinium salt 2c, 300 μM glutathione
T1 construct: Lysozyme (from chicken egg white, >40,000 units/mg of protein); purchased Sigma Aldrich; host or cells: chicken egg white
T1 sequence (P00698 19-147): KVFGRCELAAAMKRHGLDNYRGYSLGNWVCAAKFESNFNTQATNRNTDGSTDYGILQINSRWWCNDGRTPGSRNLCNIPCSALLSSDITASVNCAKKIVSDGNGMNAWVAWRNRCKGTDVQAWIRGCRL
Protocol: General Procedure B: Photochemical Irradiation of Peptides and Proteins: To a 2 mL Pyrex LC/MS vial (Thermo model #03-391-39) were sequentially added solutions containing the desired biomolecule, glutathione (GSH), pyridinium salt, and ammonium acetate (NH4OAc). The resulting solution was diluted to a final volume of 500 μL and then sparged using nitrogen for a minimum of 30 minutes prior to irradiation. The actively sparging solution was then placed in an EvoluChem™ PhotoRedOx Box photoreactor that was equipped with a Kessil, PR160 427 nm LED Lamp and was then irradiated (100% lamp intensity) for the designated time at room temperature while maintaining active sparging. The resultant reaction mixture was then analyzed directly by LC/MS. Analysis of labeling outcomes using LC/MS was performed either by extracted ion chromatogram intensities (method A) or by integrating the area under the peaks associated with peptide content (method B). These values were totaled, and estimated percentages were assigned according to relative intensities of peaks or ion counts.
Labeling of Lysozyme with Pyridinium Salt 2a (Lysozyme-2a Conjugate). Labeling of lysozyme (14.3 kDa) with the pyridinium salt 2a was performed by following general procedure B using the following solutions: lysozyme (27 μL, 182 μM, 10 μM final concentration), pyridinium salt 2a (200 μL, 500 μM, 200 μM final concentration), NH4+OAc (100 μL, 100 mM, pH=6.9, 20 mM final concentration), glutathione (15 μL, 10 mM, 300 μM final concentration), and water (158 μL) with a 100% intensity irradiation time of 60 minutes. The reaction mixture was analyzed directly by LC/MS using method A and was estimated to have proceeded in >95% conversion and a 10.9:1 mono:di labeled ratio and 10% glutathionylation of all unlabeled and labeled protein content was observed.
Labeling of Lysozyme with Pyridinium Salt 2b (Lysozyme-2b Conjugate). Labeling of lysozyme (14.3 kDa) with the pyridinium salt 2b was performed by following general procedure B using the following solutions: lysozyme (19 μL, 262 μM, 10 μM final concentration), 2b (181 μL, 554 μM, 200 μM final concentration), NH4OAc (50 μL, 200 mM, pH=6.9, 20 mM final concentration), glutathione (50 μL, 3 mM, 300 μM final concentration), and water (200 μL) with a 100% intensity irradiation time of 10 minutes. The reaction mixture was analyzed directly by LC/MS using method A and was estimated to have proceeded with 83% conversion. Partial oxidation at biotin obfuscated estimation of both oxidation and glutathionylation. Lysozyme-2b conjugate (retention time (Tr)=2.80-5.17 min).
Labeling of Lysozyme with Pyridinium Salt 2c (Lysozyme-2c Conjugate). Labeling of lysozyme (14.3 kDa) with the pyridinium salt 2c was performed by following general procedure B using the following solutions: lysozyme (19 μL, 262 μM, 10 μM final concentration), pyridinium salt 2c(367 μL, 680 μM, 500 μM final concentration), NH4OAc (50 μL, 200 mM, pH=6.9, 20 mM final concentration), glutathione (50 μL, 3 mM, 300 μM final concentration), and water (14 μL) with a 100% intensity irradiation time of 10 minutes. The reaction mixture was analyzed directly by LC/MS using method A and was estimated to have proceeded with 85% conversion and a 3.7:1 mono:di labeled ratio and 10% glutathionylation of all protein content was observed. Lysozyme-2c conjugate (retention time (Tr)=3.11-5.07 min).
Labeling of Lysozyme with Pyridinium Salt 2d (Lysozyme-2d Conjugate). Labeling of lysozyme (14.3 kDa) with the pyridinium salt 2d was performed by following general procedure B using the following solutions: Lysozyme (16.8 μL, 0.297 mM solution in H2O, final concentration […]), pyridinium salt 2d (91.8 μL, 1.09 mM solution in CH3CN/H2O (2:3), final concentration 200 μM), NH4OAc (50 μL, 200 mM in H2O, final concentration 20 mM, pH 6.9), glutathione (15 μL, 10 mMsolution in H2O, final concentration 300 μM), and water (326.4 μL) with a 100% intensity irradiation time of 20 minutes. […]

Row | SMILES | proteome labeling profile, streptavidin-HRP Western blot of elution profiles [1] | number of proteins identified (from ≥2 unique peptides) with ≥2-fold enrichment versus DMSO [1] [proteins] | water solubility [2] | conversion ([3]; 10 μM lysozyme, 20 mM NH4OAc pH 6.9, 427 nm, 10 minutes, trifluoroacetate) | glutathionylation of all protein content ([3]; 10 minutes irradiation) [%]
1 | Cc1cc(-c2ccccc2)cc(C)[n+]1N(C)C(=O)OCCCCC[C@@H]1SC[C@@H]2NC(=O)N[C@@H]21 [Pyridinium salt 1b, 2,6-dimethyl-1-(methyl(((5-((3aS,4S,6aR)-2-oxohexahydro-1H-thieno[3,4-d]imidazole-4-yl)pentyl)oxy)carbonyl)amino)-4-phenylpyridin-1-ium tetrafluoroborate] | concentration and optically dependent proteome labeling profiles; also recorded: dose-response profiles | 365 | – | – | –
2 | COc1ccc2cc(-c3cc(C)[n+](N(C)C(=O)OCCCCCC[C@H]4NC(=O)N[C@H]4C)c(C)c3)ccc2c1 [Pyridinium salt 2c, 4-(6-methoxynaphthalen-2-yl)-2,6-dimethyl-1-(methyl(((6-((4R,5S)-5-methyl-2-oxoimidazolidin-4-yl)hexyl)oxy)carbonyl)amino)pyridin-1-ium trifluoroacetate] | – | – | superior water solubility | 85% and 86% | 10
3 | Cc1cc(C)[n+](N(C)C(=O)OCCCCC[C@@H]2SC[C@@H]3NC(=O)N[C@@H]32)c(C)c1 [Pyridinium salt 1a, 2,4,6-trimethyl-1-(methyl(((5-((3aS,4S,6aR)-2-oxohexahydro-1H-thieno[3,4-d]imidazol-4-yl)pentyl)oxy)carbonyl)amino)pyridin-1-ium tetrafluoroborate] | concentration and optically dependent proteome labeling profiles; also recorded: loss of signal | 185 | – | – | –
